According to ChEMBL document CHEMBL3885881, “DrugMatrix”:

Species: Rattus norvegicus
Test: DrugMatrix - Regimen: Daily Repeat
Format: toxicity, organism-based, Sprague-Dawley
Design: regimen Daily Repeat, gender Male, age 6-8 weeks
Details: in vivo, iv, vehicle 100 % SALINE; for ABSOLUTE BASOPHIL / ABSOLUTE EOSINOPHIL / ABSOLUTE LYMPHOCYTE / ABSOLUTE MONOCYTE / ABSOLUTE SEGMENTED NEUTROPHIL / BASOPHIL / EOSINOPHIL / ERYTHROCYTE COUNT / HEMATOCRIT / HEMOGLOBIN / LEUKOCYTE COUNT / LYMPHOCYTE / MEAN CORPUSCULAR HEMOGLOBIN / MEAN CORPUSCULAR HEMOGLOBIN CONCENTRATION / MEAN CORPUSCULAR VOLUME / MONOCYTE / NEUTROPHIL / NUCLEATED RED BLOOD CELLS / PLATELET COUNT: tissue Blood; for ALANINE AMINOTRANSFERASE / ALBUMIN / ALKALINE PHOSPHATASE / ASPARTATE AMINOTRANSFERASE / BLOOD UREA NITROGEN / CARBON DIOXIDE / CHLORIDE / CHOLESTEROL / CREATINE PHOSPHOKINASE / CREATININE / GLUCOSE / LACTATE DEHYDROGENASE / LIPASE / PHOSPHORUS / POTASSIUM / SODIUM / TOTAL BILIRUBIN / TOTAL PROTEIN / URIC ACID: tissue Plasma
[1] = 5 mg/kg, 72 h, dose level Low, time 3 day
[2] = 5 mg/kg, 120 h, dose level Low, time 5 day
[3] = 30 mg/kg, 72 h, dose level High, time 3 day
[4] = 30 mg/kg, 120 h, dose level High, time 5 day

## CNC1(c2ccccc2Cl)CCCCC1=O (configuration not stated) [KETAMINE]
[1]
  ABSOLUTE BASOPHIL: 0 CELLS/uL
  ABSOLUTE EOSINOPHIL: 51.33 CELLS/uL
  ABSOLUTE LYMPHOCYTE: 14067.33 CELLS/uL
  ABSOLUTE MONOCYTE: 102.67 CELLS/uL
  ABSOLUTE SEGMENTED NEUTROPHIL: 1912 CELLS/uL
  BASOPHIL: 0%
  EOSINOPHIL: 0.33%
  ERYTHROCYTE COUNT: 5.81 x10E6/uL
  HEMATOCRIT: 36.67%
  HEMOGLOBIN: 14.57 G/DL
  LEUKOCYTE COUNT: 16.13 x10E3/uL
  LYMPHOCYTE: 87%
  MEAN CORPUSCULAR HEMOGLOBIN: 25.1 pg
  MEAN CORPUSCULAR HEMOGLOBIN CONCENTRATION: 39.73 G/DL
  MEAN CORPUSCULAR VOLUME: 63.13 fL
  MONOCYTE: 0.67%
  NEUTROPHIL: 12%
  NUCLEATED RED BLOOD CELLS: 0 /100WBC
  PLATELET COUNT: 1224 x10E3/uL
  ALANINE AMINOTRANSFERASE: 65.67 u/L
  ALBUMIN: 4.37 G/DL
  ALKALINE PHOSPHATASE: 476.33 u/L
  ASPARTATE AMINOTRANSFERASE: 112 u/L
  BLOOD UREA NITROGEN: 16.67 mg/dL
  CARBON DIOXIDE: 24.33 mmol/L
  CHLORIDE: 102.33 MEQ/L
  CHOLESTEROL: 77 mg/dL
  CREATINE PHOSPHOKINASE: 659.67 u/L
  CREATININE: 0.19 mg/dL
  GLUCOSE: 151 mg/dL
  LACTATE DEHYDROGENASE: 281 u/L
  LIPASE: 8.67 u/L
  PHOSPHORUS: 13.03 mg/dL
  POTASSIUM: 6.82 MEQ/L
  SODIUM: 147.17 MEQ/L
  TOTAL BILIRUBIN: 0.2 mg/dL
  TOTAL PROTEIN: 6.1 G/DL
  URIC ACID: 1.77 mg/dL
[2]
  ABSOLUTE BASOPHIL: 0 CELLS/uL
  ABSOLUTE EOSINOPHIL: 0 CELLS/uL
  ABSOLUTE LYMPHOCYTE: 13962.33 CELLS/uL
  ABSOLUTE MONOCYTE: 431.67 CELLS/uL
  ABSOLUTE SEGMENTED NEUTROPHIL: 1839.33 CELLS/uL
  BASOPHIL: 0%
  EOSINOPHIL: 0%
  ERYTHROCYTE COUNT: 5.58 x10E6/uL
  HEMATOCRIT: 35.2%
  HEMOGLOBIN: 13.8 G/DL
  LEUKOCYTE COUNT: 16.23 x10E3/uL
  LYMPHOCYTE: 86%
  MEAN CORPUSCULAR HEMOGLOBIN: 24.77 pg
  MEAN CORPUSCULAR HEMOGLOBIN CONCENTRATION: 39.27 G/DL
  MEAN CORPUSCULAR VOLUME: 63.1 fL
  MONOCYTE: 2.67%
  NEUTROPHIL: 11.33%
  NUCLEATED RED BLOOD CELLS: 0 /100WBC
  PLATELET COUNT: 1165.33 x10E3/uL
  ALANINE AMINOTRANSFERASE: 62.33 u/L
  ALBUMIN: 4 G/DL
  ALKALINE PHOSPHATASE: 365.67 u/L
  ASPARTATE AMINOTRANSFERASE: 75.67 u/L
  BLOOD UREA NITROGEN: 16 mg/dL
  CARBON DIOXIDE: 23.67 mmol/L
  CHLORIDE: 103 MEQ/L
  CHOLESTEROL: 71 mg/dL
  CREATINE PHOSPHOKINASE: 194 u/L
  CREATININE: 0.14 mg/dL
  GLUCOSE: 158.33 mg/dL
  LACTATE DEHYDROGENASE: 81 u/L
  LIPASE: 8.33 u/L
  PHOSPHORUS: 11.53 mg/dL
  POTASSIUM: 6.9 MEQ/L
  SODIUM: 144.5 MEQ/L
  TOTAL BILIRUBIN: 0.2 mg/dL
  TOTAL PROTEIN: 6.03 G/DL
  URIC ACID: 1.43 mg/dL
[3]
  ABSOLUTE BASOPHIL: 0 CELLS/uL
  ABSOLUTE EOSINOPHIL: 0 CELLS/uL
  ABSOLUTE LYMPHOCYTE: 14382.67 CELLS/uL
  ABSOLUTE MONOCYTE: 155.33 CELLS/uL
  ABSOLUTE SEGMENTED NEUTROPHIL: 1995.33 CELLS/uL
  BASOPHIL: 0%
  EOSINOPHIL: 0%
  ERYTHROCYTE COUNT: 5.41 x10E6/uL
  HEMATOCRIT: 34.6%
  HEMOGLOBIN: 13.7 G/DL
  LEUKOCYTE COUNT: 16.53 x10E3/uL
  LYMPHOCYTE: 87.33%
  MEAN CORPUSCULAR HEMOGLOBIN: 25.3 pg
  MEAN CORPUSCULAR HEMOGLOBIN CONCENTRATION: 39.6 G/DL
  MEAN CORPUSCULAR VOLUME: 63.93 fL
  MONOCYTE: 1%
  NEUTROPHIL: 11.67%
  NUCLEATED RED BLOOD CELLS: 0 /100WBC
  PLATELET COUNT: 1095 x10E3/uL
  ALANINE AMINOTRANSFERASE: 62.67 u/L
  ALBUMIN: 4.23 G/DL
  ALKALINE PHOSPHATASE: 372.33 u/L
  ASPARTATE AMINOTRANSFERASE: 96.67 u/L
  BLOOD UREA NITROGEN: 17 mg/dL
  CARBON DIOXIDE: 19 mmol/L
  CHLORIDE: 101.67 MEQ/L
  CHOLESTEROL: 72.67 mg/dL
  CREATINE PHOSPHOKINASE: 366.67 u/L
  CREATININE: 0.23 mg/dL
  GLUCOSE: 202.67 mg/dL
  LACTATE DEHYDROGENASE: 284.33 u/L
  LIPASE: 10 u/L
  PHOSPHORUS: 13.57 mg/dL
  POTASSIUM: 5.66 MEQ/L
  SODIUM: 144.1 MEQ/L
  TOTAL BILIRUBIN: 0.2 mg/dL
  TOTAL PROTEIN: 6 G/DL
  URIC ACID: 2.03 mg/dL
[4]
  ABSOLUTE BASOPHIL: 0 CELLS/uL
  ABSOLUTE EOSINOPHIL: 79.33 CELLS/uL
  ABSOLUTE LYMPHOCYTE: 16271.33 CELLS/uL
  ABSOLUTE MONOCYTE: 278 CELLS/uL
  ABSOLUTE SEGMENTED NEUTROPHIL: 1271.33 CELLS/uL
  BASOPHIL: 0%
  EOSINOPHIL: 0.33%
  ERYTHROCYTE COUNT: 5.66 x10E6/uL
  HEMATOCRIT: 35.67%
  HEMOGLOBIN: 14 G/DL
  LEUKOCYTE COUNT: 17.9 x10E3/uL
  LYMPHOCYTE: 92%
  MEAN CORPUSCULAR HEMOGLOBIN: 24.8 pg
  MEAN CORPUSCULAR HEMOGLOBIN CONCENTRATION: 39.27 G/DL
  MEAN CORPUSCULAR VOLUME: 63.03 fL
  MONOCYTE: 1.33%
  NEUTROPHIL: 6.33%
  NUCLEATED RED BLOOD CELLS: 0 /100WBC
  PLATELET COUNT: 1154.33 x10E3/uL
  ALANINE AMINOTRANSFERASE: 51 u/L
  ALBUMIN: 4.2 G/DL
  ALKALINE PHOSPHATASE: 328.67 u/L
  ASPARTATE AMINOTRANSFERASE: 76.67 u/L
  BLOOD UREA NITROGEN: 16.33 mg/dL
  CARBON DIOXIDE: 22.67 mmol/L
  CHLORIDE: 105 MEQ/L
  CHOLESTEROL: 69.67 mg/dL
  CREATINE PHOSPHOKINASE: 264.33 u/L
  CREATININE: 0.2 mg/dL
  GLUCOSE: 179.33 mg/dL
  LACTATE DEHYDROGENASE: 119.67 u/L
  LIPASE: 8.67 u/L
  PHOSPHORUS: 12.4 mg/dL
  POTASSIUM: 6.35 MEQ/L
  SODIUM: 146.23 MEQ/L
  TOTAL BILIRUBIN: 0.17 mg/dL
  TOTAL PROTEIN: 6.1 G/DL
  URIC ACID: 1.3 mg/dL
